Where two headings read alike, the source gives them in different places.
Tested on: HIV-IIIb
Assay: Test A: Antiviral Assay in MT4 Cells
Format: cell-based
Conditions: MT-4 cells infected with HIV-IIIb, 5 days of incubation, CellTiter-Glo, read-out: EC50
Method: The antiviral properties of a compound of the invention may be determined using Test A described below.
Test A: Antiviral Assay in MT4 Cells
For the antiviral assay utilizing MT-4 cells, 0.4 μL of […] test concentration of 3-fold serially diluted compound in DMSO was added to 40 μL of cell growth medium (RPMI 1640, 10% FBS, 1% penicilline/Streptomycine, 1% L-Glutamine, 1% HEPES) in each well of 384-well assay plates (10 concentrations) in quadruplicate.
One mL aliquots of 2×10e6 MT-4 cells were pre-infected for 1 and 3 hours respectively, @ 37° C. with 25 uL (MT4) or of either cell growth medium (mock-infected) or a fresh 1:250 dilution of an HIV-IIIb concentrated ABI stock (0.004m.o.i. for MT4 cells). Infected and uninfected cells were diluted in cell growth medium and 35 uL of 2000 (for MT4) cells was added to each well of the assay plates.
Assay plates were then incubated in a 37° C. incubator. After 5 days of incubation, […] of 2× concentrated CellTiter-Glo™ Reagent (catalog #G7573, Promega Biosciences, Inc., Madison, Wis.) was added to each well of the assay plate. Cell lysis was carried out by incubating at room temperature for 2-3 min and then chemiluminescence was read using the Envision reader (PerkinElmer). […]

[1] = Human immunodeficiency virus 1, IIIB, MT4, 120 h, Table 1

## CCC(C)(C)O[C@H](C(=O)O)c1c(C)cc2nc(N3CCC3)sc2c1-c1ccc2c3c(ccnc13)CCO2 (atropisomer, axis not shown) [Compound 89, (S)-2-((S)-2-(azetidin-1-yl)-7-(2,3-dihydropyrano[4,3,2-de]quinolin-7-yl)-5-methylbenzo[d]thiazol-6-yl)-2-(tert-pentyloxy)acetic acid]
[1]
  EC50: 36.6 nM

## Cc1cc2nc(-c3cccc(-c4ccc5c(cnn5C)c4)c3)sc2c(-c2ccc3c4c(ccnc24)CCO3)c1[C@H](OC(C)(C)C)C(=O)O (atropisomer, axis not shown) [Compound 164]
Table 1
  EC50: 483 nM

## Cc1cc2nc(-c3cccc(-c4ccc5c(cnn5C)c4)c3)sc2c(-c2cc(F)c3c(c2C)C(=O)CCO3)c1[C@H](OC(C)(C)C)C(=O)O (atropisomer, axis not shown) [Compound 167]
[1]
  EC50: 39 nM

## Cc1cc2nc(-c3cccc(-c4ccc5c(cnn5C)c4)c3)sc2c(-c2cc(F)c3c(c2C)CCCO3)c1[C@H](OC(C)(C)C)C(=O)O (atropisomer, axis not shown) [Compound 168]
[1]
  EC50: 42 nM

## Cc1cc2nc(-c3ccnc(N4CCN(C(C)C)CC4C)n3)sc2c(-c2ccc(Cl)cc2)c1[C@H](OC(C)(C)C)C(=O)O (stereo in doubt) [Compound 467, (S)-2-tert-butoxy-2-(7-(4-chlorophenyl)-2-(2-((R)-4-isopropyl-2-methylpiperazin-1-yl)pyrimidin-4-yl)-5-methylbenzo[d]thiazol-6-yl)acetic acid]
Human immunodeficiency virus 1, IIIB, MT4, 120 h, Table 2
  EC50: 5 nM

## COc1cncc(-c2cc(-c3nc4cc(C)c([C@H](OC(C)(C)C)C(=O)O)c(-c5ccc(Cl)cc5)c4s3)ccn2)c1 [Compound 105, (S)-2-tert-butoxy-2-(7-(4-chlorophenyl)-2-(5′-methoxy-2,3′-bipyridin-4-yl)-5-methylbenzo[d]thiazol-6-yl)acetic acid]
[1]
  EC50: 16 nM

## Cc1cc2nc(-c3cccc(-c4cncnc4)c3)sc2c(-c2ccc(Cl)cc2)c1[C@H](OC(C)(C)C)C(=O)O [Compound 106, (S)-2-tert-butoxy-2-(7-(4-chlorophenyl)-5-methyl-2-(3-(pyrimidin-5-yl)phenyl)benzo[d]thiazol-6-yl)acetic acid]
[1]
  EC50: 103 nM

## Cc1cc2nc(-c3ccnc(-c4ccc5cnn(C)c5c4)c3)sc2c(-c2ccc(Cl)cc2)c1[C@H](OC(C)(C)C)C(=O)O [Compound 108, (S)-2-tert-butoxy-2-(7-(4-chlorophenyl)-5-methyl-2-(2-(1-methyl-1H-indazol-6-yl)pyridin-4-yl)benzo[d]thiazol-6-yl)acetic acid]
[1]
  EC50: 33 nM

## Cc1cc2nc(-c3ccnc(-c4ccc5c(cnn5C)c4)n3)sc2c(-c2ccc(Cl)cc2)c1[C@H](OC(C)(C)C)C(=O)O [Compound 110, (S)-2-tert-butoxy-2-(7-(4-chlorophenyl)-5-methyl-2-(2-(1-methyl-1H-indazol-5-yl)pyrimidin-4-yl)benzo[d]thiazol-6-yl)acetic acid]
[1]
  EC50: 14 nM

## Cc1cc2nc(-c3cnc4cnn(C)c4c3)sc2c(-c2ccc(Cl)cc2)c1[C@H](OC(C)(C)C)C(=O)O [Compound 111, (S)-2-tert-butoxy-2-(7-(4-chlorophenyl)-5-methyl-2-(1-methyl-1H-pyrazolo[4,3-b]pyridin-6-yl)benzo[d]thiazol-6-yl)acetic acid]
[1]
  EC50: 8 nM

## Cc1cc2nc(-c3cnc4[nH]cc(C)c4c3)sc2c(-c2ccc(Cl)cc2)c1[C@H](OC(C)(C)C)C(=O)O [Compound 112]
[1]
  EC50: 28 nM

## Cc1cc2nc(-c3ccc4c(cnn4C)c3)sc2c(-c2ccc(Cl)cc2)c1[C@H](OC(C)(C)C)C(=O)O [Compound 113b, (S)-2-tert-butoxy-2-(7-(4-chlorophenyl)-5-methyl-2-(1-methyl-1H-indazol-5-yl)benzo[d]thiazol-6-yl)acetic acid]
[1]
  EC50: 18 nM

## Cc1cc2nc(-c3cncc(-c4ccc5c(cnn5C)c4)c3)sc2c(-c2ccc(Cl)cc2)c1[C@H](OC(C)(C)C)C(=O)O [Compound 114, (S)-2-tert-butoxy-2-(7-(4-chlorophenyl)-5-methyl-2-(5-(1-methyl-1H-indazol-5-yl)pyridin-3-yl)benzo[d]thiazol-6-yl)acetic acid]
[1]
  EC50: 13 nM

## Cc1cc2nc(-c3ccnc(-c4ccc5[nH]ncc5c4)c3)sc2c(-c2ccc(Cl)cc2)c1[C@H](OC(C)(C)C)C(=O)O [Compound 115, (S)-2-(2-(2-(1H-indazol-5-yl)pyridin-4-yl)-7-(4-chlorophenyl)-5-methylbenzo[d]thiazol-6-yl)-2-tert-butoxyacetic acid]
[1]
  EC50: 13 nM

## Cc1cc2nc(-c3cnc4c(cnn4C)c3)sc2c(-c2ccc(Cl)cc2)c1[C@H](OC(C)(C)C)C(=O)O [Compound 116, (S)-2-tert-butoxy-2-(7-(4-chlorophenyl)-5-methyl-2-(1-methyl-1H-pyrazolo[3,4-b]pyridin-5-yl)benzo[d]thiazol-6-yl)acetic acid]
[1]
  EC50: 19 nM

## Cc1cc2nc(-n3cccc(-c4ccc5c(cnn5C)c4)c3=O)sc2c(-c2ccc(Cl)cc2)c1[C@H](OC(C)(C)C)C(=O)O [Compound 117, (S)-2-tert-butoxy-2-(7-(4-chlorophenyl)-5-methyl-2-(3-(1-methyl-1H-indazol-5-yl)-2-oxopyridin-1(2H)-yl)benzo[d]thiazol-6-yl)acetic acid]
[1]
  EC50: 14 nM

## Cc1cc2nc(-n3cc(-c4ccc5c(cnn5C)c4)ccc3=O)sc2c(-c2ccc(Cl)cc2)c1[C@H](OC(C)(C)C)C(=O)O [Compound 118, (S)-2-tert-butoxy-2-(7-(4-chlorophenyl)-5-methyl-2-(5-(1-methyl-1H-indazol-5-yl)-2-oxopyridin-1(2H)-yl)benzo[d]thiazol-6-yl)acetic acid]
[1]
  EC50: 101 nM

## Cc1cc2nc(-c3cccc(-c4ccc5c(cnn5C)c4)c3)sc2c(-c2ccc3c(c2)OC(C)O3)c1[C@H](OC(C)(C)C)C(=O)O (stereo partly drawn) [Compound 119, (2S)-2-tert-butoxy-2-(5-methyl-2-(3-(1-methyl-1H-indazol-5-yl)phenyl)-7-(2-methylbenzo[d][1,3]dioxol-5-yl)benzo[d]thiazol-6-yl)acetic acid]
[1]
  EC50: 237 nM

## Cc1cc2nc(-c3cccc(-c4cnn(C)c4C)c3)sc2c(-c2ccc(Cl)cc2)c1[C@H](OC(C)(C)C)C(=O)O [Compound 120, (S)-2-tert-butoxy-2-(7-(4-chlorophenyl)-2-(3-(1,5-dimethyl-1H-pyrazol-4-yl)phenyl)-5-methylbenzo[d]thiazol-6-yl)acetic acid]
[1]
  EC50: 23 nM

## Cc1cc2nc(-c3cnc4c(c3)c(C)cn4C)sc2c(-c2ccc(Cl)cc2)c1[C@H](OC(C)(C)C)C(=O)O [Compound 121, (S)-2-tert-butoxy-2-(7-(4-chlorophenyl)-2-(1,3-dimethyl-1H-pyrrolo[2,3-b]pyridin-5-yl)-5-methylbenzo[d]thiazol-6-yl)acetic acid]
[1]
  EC50: 27 nM

## Cc1cc2nc(-c3ccnc(-c4cccc(-c5nnn[nH]5)c4)c3)sc2c(-c2ccc(Cl)cc2)c1[C@H](OC(C)(C)C)C(=O)O [Compound 122, (S)-2-(2-(2-(3-(1H-tetrazol-5-yl)phenyl)pyridin-4-yl)-7-(4-chlorophenyl)-5-methylbenzo[d]thiazol-6-yl)-2-tert-butoxyacetic acid]
[1]
  EC50: 5520 nM

## Cc1cc2nc(N3CCCN(c4ccc5c(cnn5C)c4)C3=O)sc2c(-c2ccc(Cl)cc2)c1[C@H](OC(C)(C)C)C(=O)O [Compound 123, (S)-2-tert-butoxy-2-(7-(4-chlorophenyl)-5-methyl-2-(3-(1-methyl-1H-indazol-5-yl)-2-oxotetrahydropyrimidin-1(2H)-yl)benzo[d]thiazol-6-yl)acetic acid]
[1]
  EC50: 18 nM

## Cc1cc2nc(N3CCN(c4ccc5c(cnn5C)c4)C3=O)sc2c(-c2ccc(Cl)cc2)c1[C@H](OC(C)(C)C)C(=O)O [Compound 124, (S)-2-tert-butoxy-2-(7-(4-chlorophenyl)-5-methyl-2-(3-(1-methyl-1H-indazol-5-yl)-2-oxoimidazolidin-1-yl)benzo[d]thiazol-6-yl)acetic acid]
[1]
  EC50: 21 nM

## Cc1cc2nc(N3CC(c4ccc5c(cnn5C)c4)CC3=O)sc2c(-c2ccc(Cl)cc2)c1[C@H](OC(C)(C)C)C(=O)O (stereo partly drawn) [Compound 125, (2S)-2-tert-butoxy-2-(7-(4-chlorophenyl)-5-methyl-2-(4-(1-methyl-1H-indazol-5-yl)-2-oxopyrrolidin-1-yl)benzo[d]thiazol-6-yl)acetic acid]
[1]
  EC50: 205 nM

## Cc1cc2nc(N3CCC(c4ccccc4)C3)sc2c(-c2ccc(Cl)cc2)c1[C@H](OC(C)(C)C)C(=O)O (stereo partly drawn) [Compound 126]
[1]
  EC50: 722 nM

## Cc1cc2nc(-c3ccnc(-c4cnc5cnn(C)c5c4)c3)sc2c(-c2ccc(Cl)cc2)c1[C@H](OC(C)(C)C)C(=O)O [Compound 129]
[1]
  EC50: 48 nM

## Cc1cc2nc(-c3cc(-c4ccc5c(cnn5C)c4)ncn3)sc2c(-c2ccc(Cl)cc2)c1[C@H](OC(C)(C)C)C(=O)O [Compound 130]
[1]
  EC50: 100 nM

## Cc1cc2nc(-c3cncc(-c4ccc5c(cnn5C)c4)n3)sc2c(-c2ccc(Cl)cc2)c1[C@H](OC(C)(C)C)C(=O)O [Compound 131]
[1]
  EC50: 8 nM

## Cc1cc2nc(-c3cnc4cn(C)nc4c3)sc2c(-c2ccc(Cl)cc2)c1[C@H](OC(C)(C)C)C(=O)O [Compound 132]
[1]
  EC50: 12 nM

## Cc1cc2nc(-c3ccc4c(c3)c(N)nn4C)sc2c(-c2ccc(Cl)cc2)c1[C@H](OC(C)(C)C)C(=O)O [Compound 133]
[1]
  EC50: 18 nM

From patent US8987250B2 (Gilead Sciences, Inc., priority 2012, dated 2015)
